In ChEMBL document CHEMBL1130660, “Design and synthesis of a tetrahydropyran-based inhibitor of mammalian ribonucleotide reductase” (Bioorg Med Chem Lett, 1998):

Experiments:
Type in all cases: protein-complex assay
[1] = target: T1, Ribonucleoside-diphosphate reductase RR1 (Homo sapiens) (UniProt P23921+Q7LG56+P31350); assay: Mammalian ribonucleotide reductase (mRR) inhibitory activity at a dose of 100 uM
[2] = target: T1, Ribonucleoside-diphosphate reductase RR1 (Homo sapiens); assay: Mammalian ribonucleotide reductase (mRR) inhibitory activity at a dose of 500 uM
[3] = target: T1, Ribonucleoside-diphosphate reductase RR1 (Homo sapiens); assay: Mammalian ribonucleotide reductase (mRR) inhibitory activity at a dose of 1000 uM
[4] = target: T1, Ribonucleoside-diphosphate reductase RR1 (Homo sapiens); assay: Mammalian ribonucleotide reductase (mRR) inhibitory activity at a dose of 0 uM
[5] = target: T1, Ribonucleoside-diphosphate reductase RR1 (Homo sapiens); assay: Mammalian ribonucleotide reductase (mRR) inhibitory activity at a dose of 300 uM
[6] = target: T1, Ribonucleoside-diphosphate reductase RR1 (Homo sapiens); assay: Mammalian ribonucleotide reductase (mRR) inhibitory activity at a dose of 30 uM

## CC(=O)N[C@@H](Cc1ccccc1)C(=O)NC[C@@H]1O[C@H]([C@@H](C)C(=O)N[C@@H](CC(=O)O)C(=O)N[C@@H](Cc2ccccc2)C(=O)O)[C@@H](OCC(=O)O)C[C@H]1OCC(C)C
[1]
  Residual RR activity: 73%
[2]
  Residual RR activity: 48%
[3]
  Residual RR activity: 32%
[4]
  Residual RR activity: 100%
[5]
  Residual RR activity: 64%
[6]
  Residual RR activity: 86%
